Laboratory results taken from paper PMC12920294, “Optimizing uPAR-targeting radiopeptides for improved tissue distribution: progress towards radionuclide therapy” (European Journal of Nuclear Medicine and Molecular Imaging, 2025).
Where two headings read alike, the source gives them in different places.

Key:
[1] = format: in vitro ADME; details: 1 µM
Description: The ^177Lu-labeled peptides (50 MBq/nmol) were incubated in mouse or human blood plasma (10 MBq/200 µL) over an incubation period of 24 h at 37 °C. Aliquots and control samples of the radiopeptides diluted in saline were analyzed after 1 h, 4 h and 24 h using thin layer chromatography (TLC) as previously reported (Supplementary Material). The distribution coefficients (logD values) of the ^177Lu-labeled peptides (50 MBq/nmol) were determined using a shake-flask method according to a previously published procedure (Supplementary Material).
Methods: A sample of each radiopeptide (50 MBq/nmol) was added to mouse blood plasma (Lot: 32321, Rockland Immunochemicals Inc., USA) or to human blood plasma (Stiftung Blutspende SRK Aargau-Solothurn, Switzerland) to obtain an activity concentration of 10 MBq/200 µL. The test samples were incubated at 37 °C for up to 24 h. Control samples referred to the radiopeptides which were instead diluted in saline at an activity concentration of 10 MBq/200 µL. Aliquots of each sample (2 µL, ~100 kBq) were taken after 1 h, 4 h and 24 h and investigated by means of thin layer chromatography (TLC). The employed method involved reversed-phase TLC plates (MERCK Analytical Chromatography, TLC Silica gel 60 RP-18 F254s) as stationary phase and ACN/citrate buffer (3:7; v/v; pH 5.5) as mobile phase. After the eluent reached the front line, the TLC plates were dried and exposed to a phosphor screen (Super resolution screen PSR10450013, PerkinElmer) for 1 min. The respective screen was developed using a storage phosphor system (Cyclone Plus, PerkinElmer) and analyzed using the OptiQuant Software (version 5.0, Bright Instrument Co Ltd., PerkinElmer).

physchem = format: physicochemical; details: pH 7.4
Description: The ^177Lu-labeled peptides (50 MBq/nmol) were incubated in mouse or human blood plasma (10 MBq/200 µL) over an incubation period of 24 h at 37 °C. Aliquots and control samples of the radiopeptides diluted in saline were analyzed after 1 h, 4 h and 24 h using thin layer chromatography (TLC) as previously reported (Supplementary Material). The distribution coefficients (logD values) of the ^177Lu-labeled peptides (50 MBq/nmol) were determined using a shake-flask method according to a previously published procedure (Supplementary Material). Methods: The radiopeptides (50 MBq/nmol) were diluted in phosphate buffered saline (PBS) pH 7.4 to obtain an activity concentration of 10 MBq/500 µL. A sample of this radiopeptide solution (~0.5 MBq, 25 µL, 0.01 nmol) was added to a mixture of PBS pH 7.4 (1475 µL) and n-octanol (1500 µL). The vials were vortexed vigorously for 1 min followed by centrifugation (560 rcf, 25°C, 6 min) for phase separation. Aliquots were taken from each phase and measured in a γ-counter (Wallac Wizard 1480, PerkinElmer). The distribution coefficients were calculated as the logarithmic value of the ratio of counts per minute (cpm) measured in the n-octanol phase relative to the cpm measured in the PBS phase. The results were listed as average ± SD of the data obtained from 3 independent experiments, each performed with five replicates.

in vivo = details: CD1 nude, mouse, 0.5 nmol/mouse, total radioactivity
Description: HEK-uPAR xenografted mice were injected with the respective radiopeptide (5 MBq, 0.5 nmol/mouse, 100 µL 0.9% NaCl containing 0.05% BSA) and sacrificed at 4 h and 24 h after injection. […] The tissues and organs of interest were collected, weighed and counted for activity using a γ-counter (Wallac Wizard 1480, PerkinElmer). […] The results were presented as the average ± SD of n = 3 mice. The time-activity curves were determined for the uptake of [^177Lu]Lu-DOTA-AE105 and [^177Lu]Lu-uPAR-11 in the blood, HEK-uPAR xenografts, kidneys and liver based on non-decay corrected biodistribution data. For the blood, the initial uptake (t = 0) was set as 50% IA/g assuming a blood volume of 2 mL for CD1 nude mice. The initial uptake value (t = 0) for all other organs and tissues was set as 0% IA/g. […] The area under the curves over 48 h after injection (AUC0h→48 h) was calculated using GraphPad Prism software (version 10.1.1). Statistical analyses were performed by applying a one-way ANOVA test with a Dunnet’s multiple comparison post‐test to compare the data of the new radiopeptides with those of [^177Lu]Lu-DOTA-AE105 and a Tukey’s multiple comparisons post‐test to compare the novel radiopeptides among them. A p-value of < 0.05 was considered a statistically significant difference using GraphPad Prism software (version 10.1.1).

For `Cc1ccc(CCCC(=O)NCCOCCOCCOCCC(=O)NCCCC[C@H](NC(=O)CN2CCN(CC(=O)O)CCN(CC(=O)O)CCN(CC(=O)O)CC2)C(=O)N[C@@H](CC(=O)O)C(=O)N[C@@H](CC2CCCCC2)C(=O)N[C@@H](Cc2ccccc2)C(=O)N[C@H](CO)C(=O)N[C@H](CCCNC(=N)N)C(=O)N[C@@H](Cc2ccc(O)cc2)C(=O)N[C@@H](CC(C)C)C(=O)N[C@@H](Cc2c[nH]c3ccccc23)C(=O)N[C@@H](CO)C(N)=O)cc1` [[^177Lu]Lu-uPAR-15, metal not drawn], the “Human blood plasma stability, intact radiopeptide” value (shortened to “Human blood plasma stability”) ([1]; 1 h) was 100 ± 1%, the “Mouse blood plasma stability, intact radiopeptide” value (“Mouse blood plasma stability” below) ([1]; 1 h) was 100 ± 1% and the “Human blood plasma stability” value ([1]; 4 h) was 99 ± 1%. The “Mouse blood plasma stability” value ([1]; 4 h) was 99 ± 1%, the “Human blood plasma stability” value ([1]; 24 h) was 96 ± 1% and the “Mouse blood plasma stability” value ([1]; 24 h) was 94 ± 2%. For the same compound, the logD (physchem) was -0.03 ± 0.01, the tissue uptake at 4 h (in vivo; Blood uptake) was 4.5 ± 0.5 %ID/g and the tissue uptake at 24 h (in vivo; Blood uptake) was 0.04 ± 0.01 %ID/g. It also gave a tissue uptake at 4 h (in vivo; Bone uptake) of 0.66 ± 0.05 %ID/g, a tissue uptake at 24 h (in vivo; Bone uptake) of 0.12 ± 0.03 %ID/g and a tissue uptake at 4 h (in vivo; Brain uptake) of 0.1 ± 0.02 %ID/g. The tissue uptake at 24 h (in vivo; Brain uptake) was < 0.03 %ID/g, the tissue uptake at 4 h (in vivo; HEK-uPAR xenograft uptake) was 12 ± 1 %ID/g and the tissue uptake at 24 h (in vivo; HEK-uPAR xenograft uptake) was 3.1 ± 0.8 %ID/g. The tissue uptake at 4 h (in vivo; Heart uptake) was 1.6 ± 0.2 %ID/g, the tissue uptake at 24 h (in vivo; Heart uptake) was 0.13 ± 0.01 %ID/g and the tissue uptake at 4 h (in vivo; Intestines uptake) was 0.74 ± 0.15 %ID/g. It also gave a tissue uptake at 24 h (in vivo; Intestines uptake) of 0.16 ± 0.03 %ID/g, a tissue uptake at 4 h (in vivo; Kidneys uptake) of 3.9 ± 0.6 %ID/g and a tissue uptake at 24 h (in vivo; Kidneys uptake) of 2 ± 0.3 %ID/g. It also gave a tissue uptake at 4 h (in vivo; Liver uptake) of 1.6 ± 0.2 %ID/g, a tissue uptake at 24 h (in vivo; Liver uptake) of 0.5 ± 0.11 %ID/g and a tissue uptake at 4 h (in vivo; Lung uptake) of 2.6 ± 0.4 %ID/g. The tissue uptake at 24 h (in vivo; Lung uptake) was 0.27 ± 0.06 %ID/g, the tissue uptake at 4 h (in vivo; Muscle uptake) was 0.41 ± 0.1 %ID/g and the tissue uptake at 24 h (in vivo; Muscle uptake) was 0.05 ± 0.01 %ID/g. The tissue uptake at 4 h (in vivo; Pancreas uptake) was 0.61 ± 0.1 %ID/g, the tissue uptake at 24 h (in vivo; Pancreas uptake) was 0.09 ± 0.02 %ID/g and the tissue uptake at 4 h (in vivo; Salivary glands uptake) was 1.2 ± 0.2 %ID/g. It also gave a tissue uptake at 24 h (in vivo; Salivary glands uptake) of 0.21 ± 0.03 %ID/g, a tissue uptake at 4 h (in vivo; Spleen uptake) of 0.93 ± 0.09 %ID/g and a tissue uptake at 24 h (in vivo; Spleen uptake) of 0.51 ± 0.23 %ID/g. The tissue uptake at 4 h (in vivo; Stomach uptake) was 0.67 ± 0.11 %ID/g and the tissue uptake at 24 h (in vivo; Stomach uptake) was 0.12 ± 0.03 %ID/g.
With `Cc1ccc(CCCC(=O)NCCOCCOCCOCCOCCC(=O)NCCCC[C@H](NC(=O)CC[C@H](C(=O)O)N2CCN(CC(=O)O)CCN(CC(=O)O)CCN(CC(=O)O)CC2)C(=O)N[C@@H](CC(=O)O)C(=O)N[C@@H](CC2CCCCC2)C(=O)N[C@@H](Cc2ccccc2)C(=O)N[C@H](CO)C(=O)N[C@H](CCCNC(=N)N)C(=O)N[C@@H](Cc2ccc(O)cc2)C(=O)N[C@@H](CC(C)C)C(=O)N[C@@H](Cc2c[nH]c3ccccc23)C(=O)N[C@@H](CO)C(N)=O)cc1` [[^177Lu]Lu-uPAR-17, metal not drawn] the “Human blood plasma stability” value ([1]; 1 h) was 100 ± 1%, the “Mouse blood plasma stability” value ([1]; 1 h) was 100 ± 1% and the “Human blood plasma stability” value ([1]; 4 h) was 99 ± 1%. For the same compound, the “Mouse blood plasma stability” value ([1]; 4 h) was 97 ± 2%, the “Human blood plasma stability” value ([1]; 24 h) was 96 ± 1% and the “Mouse blood plasma stability” value ([1]; 24 h) was 61 ± 9%. The logD (physchem) was -1.56 ± 0.03, the tissue uptake at 4 h (in vivo; Blood uptake) was 6 ± 1.3 %ID/g and the tissue uptake at 24 h (in vivo; Blood uptake) was < 0.03 %ID/g. It also gave a tissue uptake at 4 h (in vivo; Bone uptake) of 0.82 ± 0.1 %ID/g, a tissue uptake at 24 h (in vivo; Bone uptake) of 0.06 ± 0.01 %ID/g and a tissue uptake at 4 h (in vivo; Brain uptake) of 0.13 ± 0.04 %ID/g. For the same compound, the tissue uptake at 24 h (in vivo; Brain uptake) was < 0.03 %ID/g, the tissue uptake at 4 h (in vivo; HEK-uPAR xenograft uptake) was 8 ± 0.7 %ID/g and the tissue uptake at 24 h (in vivo; HEK-uPAR xenograft uptake) was 2.1 ± 0.5 %ID/g. For the same compound, the tissue uptake at 4 h (in vivo; Heart uptake) was 2.2 ± 0.4 %ID/g, the tissue uptake at 24 h (in vivo; Heart uptake) was 0.07 ± 0.01 %ID/g and the tissue uptake at 4 h (in vivo; Intestines uptake) was 0.87 ± 0.18 %ID/g. The tissue uptake at 24 h (in vivo; Intestines uptake) was 0.05 ± 0.01 %ID/g, the tissue uptake at 4 h (in vivo; Kidneys uptake) was 4.6 ± 0.3 %ID/g and the tissue uptake at 24 h (in vivo; Kidneys uptake) was 1.3 to 1.7 %ID/g. For the same compound, the tissue uptake at 4 h (in vivo; Liver uptake) was 1.7 ± 0.2 %ID/g, the tissue uptake at 24 h (in vivo; Liver uptake) was 0.21 ± 0.03 %ID/g and the tissue uptake at 4 h (in vivo; Lung uptake) was 3 ± 0.7 %ID/g. For the same compound, the tissue uptake at 24 h (in vivo; Lung uptake) was 0.12 ± 0.02 %ID/g, the tissue uptake at 4 h (in vivo; Muscle uptake) was 0.57 ± 0.1 %ID/g and the tissue uptake at 24 h (in vivo; Muscle uptake) was < 0.03 %ID/g. For the same compound, the tissue uptake at 4 h (in vivo; Pancreas uptake) was 0.82 ± 0.17 %ID/g, the tissue uptake at 24 h (in vivo; Pancreas uptake) was 0.04 ± 0.01 %ID/g and the tissue uptake at 4 h (in vivo; Salivary glands uptake) was 1.2 ± 0.3 %ID/g. For the same compound, the tissue uptake at 24 h (in vivo; Salivary glands uptake) was 0.12 ± 0.03 %ID/g, the tissue uptake at 4 h (in vivo; Spleen uptake) was 1 ± 0.2 %ID/g and the tissue uptake at 24 h (in vivo; Spleen uptake) was 0.13 ± 0.02 %ID/g. It also gave a tissue uptake at 4 h (in vivo; Stomach uptake) of 0.73 ± 0.29 %ID/g and a tissue uptake at 24 h (in vivo; Stomach uptake) of 0.05 ± 0.01 %ID/g.
For `Cc1ccc(CCCC(=O)NCCOCCOCCOCCOCCOCCC(=O)NCCCC[C@H](NC(=O)CN2CCN(CC(=O)O)CCN(CC(=O)O)CCN(CC(=O)O)CC2)C(=O)N[C@@H](CC(=O)O)C(=O)N[C@@H](CC2CCCCC2)C(=O)N[C@@H](Cc2ccccc2)C(=O)N[C@H](CO)C(=O)N[C@H](CCCNC(=N)N)C(=O)N[C@@H](Cc2ccc(O)cc2)C(=O)N[C@@H](CC(C)C)C(=O)N[C@@H](Cc2c[nH]c3ccccc23)C(=O)N[C@@H](CO)C(N)=O)cc1` [[^177Lu]Lu-uPAR-18, metal not drawn], the “Human blood plasma stability” value ([1]; 1 h) was 100 ± 1%, the “Mouse blood plasma stability” value ([1]; 1 h) was 100 ± 1% and the “Human blood plasma stability” value ([1]; 4 h) was 99 ± 1%. For the same compound, the “Mouse blood plasma stability” value ([1]; 4 h) was 99 ± 2%, the “Human blood plasma stability” value ([1]; 24 h) was 95 ± 2% and the “Mouse blood plasma stability” value ([1]; 24 h) was 89 ± 3%. The logD (physchem) was -0.5 ± 0.07, the tissue uptake at 4 h (in vivo; Blood uptake) was 3.4 ± 0.7 %ID/g and the tissue uptake at 24 h (in vivo; Blood uptake) was 0.05 %ID/g. It also gave a tissue uptake at 4 h (in vivo; Bone uptake) of 0.5 ± 0.04 %ID/g, a tissue uptake at 24 h (in vivo; Bone uptake) of 0.19 ± 0.01 %ID/g and a tissue uptake at 4 h (in vivo; Brain uptake) of 0.08 ± 0.01 %ID/g. The tissue uptake at 24 h (in vivo; Brain uptake) was < 0.03 %ID/g, the tissue uptake at 4 h (in vivo; HEK-uPAR xenograft uptake) was 14 ± 1 %ID/g and the tissue uptake at 24 h (in vivo; HEK-uPAR xenograft uptake) was 7.3 ± 0.4 %ID/g. The tissue uptake at 4 h (in vivo; Heart uptake) was 1.3 ± 0.2 %ID/g, the tissue uptake at 24 h (in vivo; Heart uptake) was 0.12 ± 0.01 %ID/g and the tissue uptake at 4 h (in vivo; Intestines uptake) was 0.58 ± 0.14 %ID/g. The tissue uptake at 24 h (in vivo; Intestines uptake) was 0.17 ± 0.02 %ID/g, the tissue uptake at 4 h (in vivo; Kidneys uptake) was 3.7 ± 0.4 %ID/g and the tissue uptake at 24 h (in vivo; Kidneys uptake) was 2.1 ± 0.2 %ID/g. For the same compound, the tissue uptake at 4 h (in vivo; Liver uptake) was 1.2 ± 0.1 %ID/g, the tissue uptake at 24 h (in vivo; Liver uptake) was 0.38 ± 0.06 %ID/g and the tissue uptake at 4 h (in vivo; Lung uptake) was 2.1 ± 0.4 %ID/g. It also gave a tissue uptake at 24 h (in vivo; Lung uptake) of 0.29 ± 0.02 %ID/g, a tissue uptake at 4 h (in vivo; Muscle uptake) of 0.37 ± 0.03 %ID/g and a tissue uptake at 24 h (in vivo; Muscle uptake) of 0.06 ± 0.01 %ID/g. The tissue uptake at 4 h (in vivo; Pancreas uptake) was 0.63 ± 0.27 %ID/g, the tissue uptake at 24 h (in vivo; Pancreas uptake) was 0.09 ± 0.01 %ID/g and the tissue uptake at 4 h (in vivo; Salivary glands uptake) was 0.87 ± 0.2 %ID/g. It also gave a tissue uptake at 24 h (in vivo; Salivary glands uptake) of 0.23 ± 0.03 %ID/g, a tissue uptake at 4 h (in vivo; Spleen uptake) of 0.77 ± 0.01 %ID/g and a tissue uptake at 24 h (in vivo; Spleen uptake) of 0.42 ± 0.04 %ID/g. It also gave a tissue uptake at 4 h (in vivo; Stomach uptake) of 0.54 ± 0.12 %ID/g and a tissue uptake at 24 h (in vivo; Stomach uptake) of 0.11 ± 0.02 %ID/g.
